Results published in PubChem BioAssay AID248 (DTP/NCI, 2004).
“And” between values parts separate entries of the source, which are not always exact repeats. Identical values can stand only once. Inconclusive results and toxic doses are left out. Cut-off read from the data, not from the text of the source: active = T/C of 150% or more; inactive = T/C below 125%.

Test system: L1210 leukemia ip in BDF1 mice, survival T/C
Test: NCI In Vivo Anticancer Drug Screen. Data for tumor model L1210 Leukemia (intraperitoneal) in B6D2F1 (BDF1) mice
Details: endpoint: mean survival time, higher = longer survival
How it was run: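 Tumor was transplanted into mice, which were then dosed with test compound or vehicle alone. Survival was recorded for each group, and the treated figure was expressed relative to the control figure.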

[1] = dose: 100.0 mg/kg/injection, schedule: Q01DX009 (ip), vehicle: saline with Tween-80
[2] = dose: 200.0 mg/kg/injection, schedule: Q01DX009 (ip), vehicle: saline with Tween-80
[3] = dose: 400.0 mg/kg/injection, schedule: Q01DX009 (ip), vehicle: saline with Tween-80
[4] = dose: 100.0 mg/kg/injection, schedule: Q01DX009 (ip), vehicle: saline
[5] = dose: 100.0 mg/kg/injection, schedule: Q04DX003 (ip), vehicle: saline
[6] = dose: 200.0 mg/kg/injection, schedule: Q04DX003 (ip), vehicle: saline
[7] = dose: 100.0 mg/kg/injection, schedule: Q01DX001 (ip), vehicle: saline
[8] = dose: 200.0 mg/kg/injection, schedule: Q01DX001 (ip), vehicle: saline
[9] = dose: 100.0 mg/kg/injection, schedule: Q04DX003 (ip), vehicle: saline with Tween-80
[10] = dose: 200.0 mg/kg/injection, schedule: Q04DX003 (ip), vehicle: saline with Tween-80
[11] = dose: 400.0 mg/kg/injection, schedule: Q04DX003 (ip), vehicle: saline with Tween-80
[12] = dose: 200.0 mg/kg/injection, schedule: Q01DX009 (ip), vehicle: saline
[13] = dose: 400.0 mg/kg/injection, schedule: Q01DX009 (ip), vehicle: saline
[14] = dose: 400.0 mg/kg/injection, schedule: Q04DX003 (ip), vehicle: saline

Measured: T/C

CCN(CC)CCNc1cc(C)nc(/N=C(\N)Nc2ccc(OCc3ccccc3)cc2)n1
inactive: dose: 6.25 mg/kg/injection, schedule: Q01DX009 (ip), vehicle: saline with Tween-80 100 % of control | dose: 6.25 mg/kg/injection, schedule: Q04DX003 (ip), vehicle: saline with Tween-80 103 % of control | dose: 12.5 mg/kg/injection, schedule: Q01DX009 (ip), vehicle: saline with Tween-80 98 % of control | dose: 12.5 mg/kg/injection, schedule: Q04DX003 (ip), vehicle: saline with Tween-80 101 % of control | dose: 25.0 mg/kg/injection, schedule: Q04DX003 (ip), vehicle: saline with Tween-80 103 % of control

CCCCCCCCCCCCn1cnc2ncnc(Cl)c21
inactive: dose: 12.5 mg/kg/injection, schedule: Q01DX005 (ip), vehicle: other 102 % of control | dose: 25.0 mg/kg/injection, schedule: Q01DX005 (ip), vehicle: other 98 % of control | dose: 50.0 mg/kg/injection, schedule: Q01DX005 (ip), vehicle: other 98 % of control | dose: 100.0 mg/kg/injection, schedule: Q01DX005 (ip), vehicle: other 96 % of control

Nc1ccc(N=Nc2ccc(S(=O)(=O)O)cc2)cc1
inactive: [1] 87 % of control | [2] 95 % of control | [3] 97 % of control

COc1ccccc1C(=Nc1ccccc1)N(O)c1ccccc1
inactive: dose: 2.5 mg/kg/injection, schedule: Q01DX009 (ip), vehicle: saline with Tween-80 93 % of control | dose: 5.0 mg/kg/injection, schedule: Q01DX009 (ip), vehicle: saline with Tween-80 103 % of control

O=C(O)C1=CCC=CC1C(=O)O (stereo unspecified)
inactive: dose: 25.0 mg/kg/injection, schedule: Q01DX009 (ip), vehicle: saline 93 % of control | dose: 50.0 mg/kg/injection, schedule: Q01DX009 (ip), vehicle: saline 95 % of control | [4] 98 % of control | [5] 95 % of control | [6] 93 % of control

CN(C)/N=C/c1nccc2ccccc12
inactive: dose: 50.0 mg/kg/injection, schedule: Q01DX001 (ip), vehicle: saline 98 % of control | [7] 93 % of control | [8] 93 % of control

N#CC(c1ccccc1)C(c1ccccc1)C(C(=O)c1ccccc1)c1ccccc1 (stereo unspecified)
inactive: [1] 100 % of control | [2] 93 % of control | [3] 90 % of control

Cc1cc(N(CCCl)CCCl)ccc1N=Nc1ccccc1C(=O)O
inactive: dose: 3.1 mg/kg/injection, schedule: Q01DX Z (ip), vehicle: carboxymethylcellulose (CMC) 116 % of control | dose: 5.0 mg/kg/injection, schedule: Q01DX010 (ip), vehicle: saline 110 % of control and 111 % of control | dose: 10.0 mg/kg/injection, schedule: Q01DX010 (ip), vehicle: saline 119 % of control and 122 % of control | dose: 18.0 mg/kg/injection, schedule: Q01DX Z (ip), vehicle: carboxymethylcellulose (CMC) 122 % of control | dose: 20.0 mg/kg/injection, schedule: Q01DX010 (ip), vehicle: saline 121 % of control | dose: 25.0 mg/kg/injection, schedule: Q01DX Z (ip), vehicle: carboxymethylcellulose (CMC) 107 % of control | dose: 27.0 mg/kg/injection, schedule: Q01DX Z (ip), vehicle: carboxymethylcellulose (CMC) 114 % of control | dose: 40.0 mg/kg/injection, schedule: Q01DX010 (ip), vehicle: saline 88 % of control | dose: 40.0 mg/kg/injection, schedule: Q01DX Z (ip), vehicle: carboxymethylcellulose (CMC) 86 % of control

CCc1cccc(CC)c1N(C(C)=O)C(C)=O
inactive: [1] 98 % of control | [2] 104 % of control | [3] 102 % of control

CCC(=CCC1=C(O)c2ccccc2C(=O)C1=O)CC
inactive: dose: 25.0 mg/kg/injection, schedule: Q01DX009 (ip), vehicle: water 120 % of control | dose: 50.0 mg/kg/injection, schedule: Q01DX009 (ip), vehicle: water 97 % of control | dose: 100.0 mg/kg/injection, schedule: Q01DX001 (ip), vehicle: water 103 % of control | dose: 100.0 mg/kg/injection, schedule: Q01DX009 (ip), vehicle: water 100 % of control | dose: 200.0 mg/kg/injection, schedule: Q01DX009 (ip), vehicle: water 94 % of control

CCCCCCCCP(=O)(CCCCCCCC)C(O)C(Cl)(Cl)Cl (stereo unspecified)
inactive: [9] 91 % of control | [10] 96 % of control | [11] 92 % of control

O=c1c(N=Nc2ccc(Br)cc2)c(O)n(-c2ccccc2Cl)c(=S)n1-c1ccccc1
inactive: dose: 75.0 mg/kg/injection, schedule: Q01DX001 (ip), vehicle: Klucel (hydroxypropylcellulose) (HPC) 90 % of control | dose: 150.0 mg/kg/injection, schedule: Q01DX001 (ip), vehicle: Klucel (hydroxypropylcellulose) (HPC) 101 % of control

CCCCCCCCCCCCc1ccc(CS)cc1
inactive: [4] 98 % of control | [5] 92 % of control | [12] 101 % of control | [6] 91 % of control | [13] 101 % of control | [14] 93 % of control

CN(C)C(=O)NC1CCc2ccccc21 (stereo unspecified)
inactive: dose: 100.0 mg/kg/injection, schedule: Q01DX001 (ip), vehicle: other 95 % of control | dose: 200.0 mg/kg/injection, schedule: Q01DX001 (ip), vehicle: other 93 % of control | dose: 400.0 mg/kg/injection, schedule: Q01DX001 (ip), vehicle: other 93 % of control

O=C(O)C1CCC[N-]C1.O=C(O)C1CCC[N-]C1.O=C(O)C1CCC[N-]C1.O=C(O)C1CCC[N-]C1.[Cl][Rh][Cl] (stereo unspecified)
inactive: [4] 104 % of control | [5] 96 % of control | [12] 104 % of control | [6] 102 % of control | [13] 90 % of control | [14] 96 % of control

Oc1ccccc1CNc1nn[nH]n1
inactive: dose: 100.0 mg/kg/injection, schedule: Q01DX001 (ip), vehicle: Klucel (hydroxypropylcellulose) (HPC) 101 % of control | dose: 200.0 mg/kg/injection, schedule: Q01DX001 (ip), vehicle: Klucel (hydroxypropylcellulose) (HPC) 108 % of control | dose: 400.0 mg/kg/injection, schedule: Q01DX001 (ip), vehicle: Klucel (hydroxypropylcellulose) (HPC) 103 % of control

COc1ccc2c(O)c(Oc3ccccc3)c(=O)oc2c1
inactive: [5] 87 % of control | [6] 97 % of control

CC1(O)c2cccc3c2C2(O)c4c1cccc4C(C)(O)c1cccc(c12)C3(C)O (stereo unspecified)
inactive: [1] 106 % of control | [9] 103 % of control and 108 % of control | [2] 105 % of control | [10] 114 % of control and 110 % of control | [11] 95 % of control and 101 % of control

COc1ccc2c(c1)C1(C)CCCC(C)(C(=O)O)C1C(Br)C2=O (stereo unspecified)
inactive: [7] 104 % of control | [8] 101 % of control | dose: 400.0 mg/kg/injection, schedule: Q01DX001 (ip), vehicle: saline 102 % of control

CC(=O)CC(=O)NCc1ccncc1
inactive: [4] 97 % of control | [5] 100 % of control | [12] 105 % of control | [6] 102 % of control | [13] 95 % of control | [14] 97 % of control
